Experiments:
DU-145 cells = assay: Cytochrome c assay (mitochondrial and cytosolic), ELISA; assay type: cell-based, human
Procedure: (§1) Cell numbers of 2 × 10^6 PC-3 and DU-145 cells were seeded into a […]. […] The protein content for each fraction was calculated to determine the mass content of cytochrome c in each fraction (pg cytochrome c/mg total protein). The mass content of cytochrome c (pg cytochrome c/mg total protein) was normalized towards the corresponding blank DMSO control and is given in percent (%) of blank DMSO control.

PC-3 cells = assay: as above; assay type: cell-based, human
Procedure: as §1

MALME-3M = conditions: 48 h
[1] = test system: 60 human cancer cell lines
Excerpt: The defined tumor inhibition criterion (GI50, TGI, or LC50) is recalculated in log10 expression, and the colored bars, which indicate then the sensitivity of the individual tumor cell line to the agent, are given in log10 units. […] The most important feature is at the bottom of the page: the MID (Mean of Inhibition Data) indicates the mean concentration for all tested cell lines required for the drug to reach the defined tumor inhibition criterion (GI50, TGI, or LC50). It is given in Log10GI50, Log10TGI, and Log10LC50. From those values, the corresponding MID is calculated. […] The MID can be transformed from logarithmic into linear concentrations by the formula: c = 10^MID.
The human tumor cell lines of the cancer screening panel are grown in RPMI-1640 medium containing 5% fetal bovine serum (FBS) and 2 mM L-glutamine. For a typical screening experiment, cells are inoculated into 96-well microtiter plates in 100 μL at plating densities ranging from 5000 to 40,000 cells/well, depending on the doubling time of individual cell lines. After cell inoculation, the microtiter plates are incubated at 37 °C, 5% CO2, 95% air, and 100% relative humidity for 24 h prior to the addition of experimental drugs. After 24 h, two plates of each cell line are fixed in situ with trichloroacetic acid (TCA) to represent a measurement of the cell population for each cell line at the time of drug addition (Tz). Experimental drugs are solubilized in dimethyl sulfoxide (DMSO) at 400-fold the desired final maximum test concentration and stored frozen prior to use. At the time of drug addition, an aliquot of frozen concentrate is thawed and diluted to twice the desired final maximum test concentration with a complete medium containing 50 μg/mL gentamicin. Additional four, 10-fold or ½ log serial dilutions are made to provide a total of five drug concentrations plus control. Aliquots of 100 μL of these different drug dilutions are added to the appropriate microtiter wells already containing 100 μL of the medium, resulting in the required final drug concentrations.
Following drug addition, the plates are incubated for an additional 48 h at 37 °C, 5% CO2, 95% air, and 100% relative humidity. For adherent cells, the assay is terminated by the addition of cold TCA. Cells are fixed in situ by the gentle addition of 50 μL of cold 50% (m/v) TCA (final concentration, 10% TCA) and incubated for 60 min at 4 °C. The supernatant is discarded, and the plates are washed five times with tap water and air dried. Sulforhodamine B (SRB) solution [100 μL at 0.4% (m/v) in 1% acetic acid] is added to each well, and plates are incubated for 10 min at room temperature. After staining, unbound dye is removed by washing five times with 1% acetic acid, and the plates are air dried. Bound stain is subsequently solubilized with 10 mM trizma® base [2-amino-2-(hydroxymethyl)-1,3-propandiol, tris base, trometamol], and the absorbance is read on an automated plate reader at a wavelength of λ = 515 nm. For suspension cells, the methodology is the same, except that the assay is terminated by fixing settled cells at the bottom of the wells by gently adding 50 μL of 80% TCA (final concentration, 16% TCA). Using the seven absorbance measurements [time zero, (Tz), control growth, (C), and test growth in the presence of the drug at the five concentration levels (Ti)], the percentage growth is calculated at each of the drug concentration levels. Percentage growth inhibition is calculated as:[(Ti − Tz)/(C − Tz)] × 100 for concentrations for which Ti ≥ Tz [(Ti − Tz)/Tz] × 100 for concentrations for which Ti < Tz
Three dose-response parameters are calculated for each experimental agent.

[2] = 25 µM, 50 µM and 75 µM, 48 h post-treatment
[3] = Homo sapiens, 48 h, read-out: LC50

For `COc1cc2c(c(OC)c1OC)-c1ccc(NNC(N)=S)c(=O)cc1C(NC(C)=O)CC2` [Compound 2, N-[(aS,7S)-10-(2-carbamothioylhydrazinyl)-1,2,3-trimethoxy-9-oxo-5,6,7,9-tetrahydrobenzo[a]heptalen-7-yl]acetamide monohydrate × ⅔ (ethyl acetate)], the “toxicity for the cell line” value (DU-145 cells; [2]) was “highly toxic”, the “difference in the cytochrome c-residing cellular compartment” value (DU-145 cells; 48 h, stated as less significantly than in PC-3) was “failed to induce a significant difference” and the “toxicity for the cell line” value (PC-3 cells; [2]) was “highly toxic”. The “difference in the cytochrome c-residing cellular compartment” value (PC-3 cells; 48 h) was “failed to induce a significant difference”, the GI50 (CCRF-CEM; Homo sapiens, 48 h) was 0.422 µM and the CC50 (CCRF-CEM; [3]) was over 100 µM. The TGI (CCRF-CEM; leukemia, mutant p53, 48 h) was over 100 µM, the GI50 (MOLT-4; Homo sapiens, MOLT-4, 48 h) was 0.548 µM and the CC50 (MOLT-4; Homo sapiens, MOLT-4, 48 h, read-out: LC50) was over 100 µM. The TGI (MOLT-4; MOLT-4, leukemia, mutant p53, 48 h) was over 100 µM, the GI50 (NCI-H226; Homo sapiens, NCI-H226, 48 h) was 1.74 µM and the CC50 (NCI-H226; Homo sapiens, NCI-H226, 48 h, read-out: LC50) was over 100 µM. For the same molecule, the TGI (NCI-H226; NCI-H226, non-small-cell lung cancer, p53 Lit. inconclusive, 48 h) was over 100 µM, the GI50 (NCI-H460; Homo sapiens, NCI-H460, 48 h) was 0.429 µM and the CC50 (NCI-H460; Homo sapiens, NCI-H460, 48 h, read-out: LC50) was over 100 µM. The TGI (NCI-H460; NCI-H460, non-small-cell lung cancer, wild-type p53, 48 h) was over 100 µM, the TGI (HCT-116; HCT-116, colon cancer, wild-type p53, 48 h) was 10.6 µM and the GI50 (HCT-116; Homo sapiens, HCT-116, 48 h) was 0.377 µM. The CC50 (HCT-116; Homo sapiens, HCT-116, 48 h, read-out: LC50) was over 100 µM, the TGI (HT29; HT29, colon cancer, mutant p53, 48 h) was over 100 µM and the GI50 (HT29; Homo sapiens, HT-29, 48 h) was 0.336 µM. For the same molecule, the CC50 (HT29; Homo sapiens, HT-29, 48 h, read-out: LC50) was over 100 µM, the GI50 (SW-620; Homo sapiens, SW-620, 48 h) was 0.369 µM and the CC50 (SW-620; Homo sapiens, SW-620, 48 h, read-out: LC50) was over 100 µM. The TGI (SW-620; SW-620, colon cancer, mutant p53, 48 h) was over 100 µM, the GI50 (SF-268; Homo sapiens, SF-268, 48 h) was 0.581 µM and the CC50 (SF-268; Homo sapiens, SF-268, 48 h, read-out: LC50) was over 100 µM. The TGI (SF-268; SF-268, CNS cancer (brain tumor), mutant p53, 48 h) was over 100 µM, the GI50 (SF-295; Homo sapiens, SF-295, 48 h) was 0.549 µM and the CC50 (SF-295; Homo sapiens, SF-295, 48 h, read-out: LC50) was over 100 µM. It also gave a TGI (SF-295; SF-295, CNS cancer (brain tumor), mutant p53, 48 h) of over 100 µM, a GI50 (SF-539; Homo sapiens, SF-539, 48 h) of 0.418 µM and a CC50 (SF-539; Homo sapiens, SF-539, 48 h, read-out: LC50) of over 100 µM. It also gave a TGI (SF-539; SF-539, CNS cancer (brain tumor), mutant p53, 48 h) of 20.5 µM, a GI50 (SNB-19; Homo sapiens, SNB-19, 48 h) of 0.686 µM and a CC50 (SNB-19; Homo sapiens, SNB-19, 48 h, read-out: LC50) of over 100 µM. The TGI (SNB-19; SNB-19, CNS cancer (brain tumor), mutant p53, 48 h) was over 100 µM, the GI50 (SNB-75; Homo sapiens, SNB-75, 48 h) was 0.441 µM and the CC50 (SNB-75; Homo sapiens, SNB-75, 48 h, read-out: LC50) was over 100 µM. The TGI (SNB-75; SNB-75, CNS cancer (brain tumor), mutant p53, 48 h) was over 100 µM, the GI50 (MALME-3M; Homo sapiens, Malme-3M) was 0.394 µM and the CC50 (MALME-3M; Homo sapiens, Malme-3M, read-out: LC50) was over 100 µM. For the same molecule, the TGI (MALME-3M; MALME-3M, melanoma, wild-type p53) was over 100 µM, the GI50 (MDA-MB-435; Homo sapiens, MDA-MB-435, 48 h) was 0.233 µM and the CC50 (MDA-MB-435; Homo sapiens, MDA-MB-435, 48 h, read-out: LC50) was over 100 µM. For the same molecule, the TGI (MDA-MB-435; MDA-MB-435, melanoma, mutant p53, 48 h) was 0.838 µM, the GI50 (UACC-62; Homo sapiens, UACC-62, 48 h) was 0.625 µM and the CC50 (UACC-62; Homo sapiens, UACC-62, 48 h, read-out: LC50) was over 100 µM. It also gave a TGI (UACC-62; UACC-62, melanoma, wild-type p53, 48 h) of over 100 µM, a GI50 (OVCAR-4; Homo sapiens, OVCAR-4, 48 h) of 0.507 µM and a CC50 (OVCAR-4; Homo sapiens, OVCAR-4, 48 h, read-out: LC50) of over 100 µM. The TGI (OVCAR-4; OVCAR-4, ovarian cancer, mutant p53, 48 h) was over 100 µM, the GI50 (NCI/ADR-RES; Homo sapiens, 48 h) was 25.3 µM and the CC50 (NCI/ADR-RES; [3]) was over 100 µM. The TGI (NCI/ADR-RES; ovarian cancer, mutant p53, 48 h) was over 100 µM, the TGI (A498; A498, renal cancer, wild-type p53, 48 h) was over 100 µM and the GI50 (A498; Homo sapiens, A498, 48 h) was 2.09 µM. For the same molecule, the CC50 (A498; Homo sapiens, A498, 48 h, read-out: LC50) was over 100 µM, the GI50 (TK-10; Homo sapiens, TK-10, 48 h) was 6.77 µM and the CC50 (TK-10; Homo sapiens, TK-10, 48 h, read-out: LC50) was over 100 µM. For the same molecule, the TGI (TK-10; TK-10, renal cancer, mutant p53, 48 h) was over 100 µM, the GI50 (PC-3; Homo sapiens, PC-3, 48 h) was 0.255 µM and the CC50 (PC-3; Homo sapiens, PC-3, 48 h, read-out: LC50) was over 100 µM. It also gave a TGI (PC-3; PC-3, prostate cancer, mutant p53 (null p53 protein), 48 h) of over 100 µM, a TGI (DU-145; DU-145, prostate cancer, mutant p53, 48 h) of 1.44 µM and a GI50 (DU-145; Homo sapiens, DU-145, 48 h) of 0.341 µM. It also gave a CC50 (DU-145; Homo sapiens, DU-145, 48 h, read-out: LC50) of over 100 µM, a GI50 (MCF7; Homo sapiens, MCF7, 48 h) of 0.415 µM and a CC50 (MCF7; Homo sapiens, MCF7, 48 h, read-out: LC50) of over 100 µM. For the same molecule, the TGI (MCF7; MCF7, breast cancer, wild-type p53, 48 h) was over 100 µM, the GI50 (MDA-MB-231; Homo sapiens, MDA-MB-231, 48 h) was 0.359 µM and the CC50 (MDA-MB-231; Homo sapiens, MDA-MB-231, 48 h, read-out: LC50) was over 100 µM. The TGI (MDA-MB-231; MDA-MB-231, breast cancer, mutant p53, 48 h) was 1.88 µM, the GI50 ([1]; Homo sapiens, read-out: Mean of Inhibition Data (MID) GI50, 10^MID) was 0.933 µM and the CC50 ([1]; Homo sapiens, read-out: Mean of Inhibition Data (MID) LC50, 10^MID) was 95.5 µM. For the same molecule, the “induction of cancer cell death (classification)” value ([1]; NCI 60 panel overall) was “acts only cytostatic” and the “Mean of Inhibition Data (MID) TGI, 10^MID” value ([1]; mean over all tested cell lines of the NCI 60 panel) was 32.359 µM.

From article PMC10892984, “Novel Antineoplastic Inducers of Mitochondrial Apoptosis in Human Cancer Cells” (Molecules, 2024)
